Test results as given in ChEMBL document CHEMBL1201862, “PubChem BioAssay data set” (2004).
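Exposure lasted 48 hours, with cells grown in 96-well plates and compounds tested at five concentrations. GI50 is the concentration that inhibits growth by half.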 Calls of active or inactive are those of the source. No stated cut-off is given here; in the data, active = GI50 up to about 1.1 µM and inactive = higher.

What was measured:
Assay in all cases: NCI tumour cell line growth inhibition, 48 h
OVCAR-5 = test system: OVCAR-5
OVCAR-8 = test system: OVCAR-8
HOP-92 = test system: HOP-92
786-0 = test system: 786-0
SNB-19 = test system: SNB-19
NCI-H460 = test system: NCI-H460
RPMI-8226 = test system: RPMI-8226
MDA-MB-231 = test system: MDA-MB-231
SK-MEL-5 = test system: SK-MEL-5
MDA-MB-435 = test system: MDA-MB-435
Malme-3M = test system: Malme-3M
LOX IMVI = test system: LOX IMVI
NCI-H522 = test system: NCI-H522
CCRF-CEM = test system: CCRF-CEM
SW-620 = test system: SW-620
COLO 205 = test system: COLO 205
HOP-62 = test system: HOP-62
UACC-257 = test system: UACC-257
HCC 2998 = test system: HCC 2998
EKVX = test system: EKVX
HT-29 = test system: HT-29
HCT-15 = test system: HCT-15
UACC-62 = test system: UACC-62
OVCAR-4 = test system: OVCAR-4
MCF7 = test system: MCF7
SK-MEL-2 = test system: SK-MEL-2
M14 = test system: M14
MDA-N = test system: MDA-N
NCI-H23 = test system: NCI-H23
SK-OV-3 = test system: SK-OV-3
ACHN = test system: ACHN
IGROV-1 = test system: IGROV-1
T47D = test system: T47D
NCI-H226 = test system: NCI-H226
SNB-75 = test system: SNB-75
SK-MEL-28 = test system: SK-MEL-28
NCI/ADR-RES = test system: NCI/ADR-RES
TK-10 = test system: TK-10
KM12 = test system: KM12
SF-295 = test system: SF-295
A549 = test system: A549
UO-31 = test system: UO-31
K562 = test system: K562
DU-145 = test system: DU-145
CAKI-1 = test system: CAKI-1
SR = test system: SR
SN12C = test system: SN12C
MOLT-4 = test system: MOLT-4
PC-3 = test system: PC-3
OVCAR-3 = test system: OVCAR-3
U-251 = test system: U-251
RXF 393 = test system: RXF 393
SF-539 = test system: SF-539
HCT-116 = test system: HCT-116
BT-549 = test system: BT-549
A498 = test system: A498
SF-268 = test system: SF-268
Hs-578T = test system: Hs-578T
HL-60 = test system: HL-60

What does the source list for `CC(C)(C)OC(=O)NCCNCCNc1ccccc1`?
GI50 (OVCAR-5): > 100 µM (inactive); GI50 (OVCAR-8): > 100 µM (inactive); GI50 (HOP-92): > 100 µM (inactive); GI50 (786-0): > 100 µM (inactive); GI50 (SNB-19): > 100 µM (inactive); GI50 (NCI-H460): > 100 µM (inactive); GI50 (RPMI-8226): > 100 µM (inactive); GI50 (MDA-MB-231): > 100 µM (inactive); GI50 (SK-MEL-5): 62.1 µM (inactive); GI50 (MDA-MB-435): > 100 µM (inactive); GI50 (Malme-3M): > 100 µM (inactive); GI50 (LOX IMVI): > 100 µM (inactive); GI50 (NCI-H522): > 100 µM (inactive); GI50 (CCRF-CEM): > 100 µM (inactive); GI50 (SW-620): > 100 µM (inactive); GI50 (COLO 205): > 100 µM (inactive); GI50 (HOP-62): > 100 µM (inactive); GI50 (UACC-257): > 100 µM (inactive); GI50 (HCC 2998): > 100 µM (inactive); GI50 (EKVX): > 100 µM (inactive); GI50 (HT-29): > 100 µM (inactive); GI50 (HCT-15): > 100 µM; GI50 (UACC-62): > 100 µM (inactive); GI50 (OVCAR-4): > 100 µM (inactive); GI50 (MCF7): > 100 µM (inactive); GI50 (SK-MEL-2): > 100 µM (inactive); GI50 (M14): > 100 µM (inactive); GI50 (MDA-N): 97.5 µM (inactive); GI50 (NCI-H23): > 100 µM (inactive); GI50 (SK-OV-3): > 100 µM (inactive); GI50 (ACHN): > 100 µM (inactive); GI50 (IGROV-1): > 100 µM (inactive); GI50 (T47D): 85.5 µM (inactive); GI50 (NCI-H226): > 100 µM (inactive); GI50 (SNB-75): 58.2 µM (inactive); GI50 (SK-MEL-28): > 100 µM (inactive); GI50 (NCI/ADR-RES): > 100 µM (inactive); GI50 (TK-10): > 100 µM (inactive); GI50 (KM12): > 100 µM (inactive); GI50 (SF-295): > 100 µM (inactive); GI50 (A549): > 100 µM (inactive); GI50 (UO-31): > 100 µM (inactive); GI50 (K562): > 100 µM (inactive); GI50 (DU-145): 90.8 µM (inactive); GI50 (CAKI-1): > 100 µM (inactive); GI50 (SR): > 100 µM (inactive); GI50 (SN12C): > 100 µM (inactive); GI50 (MOLT-4): > 100 µM (inactive); GI50 (PC-3): > 100 µM (inactive); GI50 (OVCAR-3): > 100 µM (inactive); GI50 (U-251): > 100 µM (inactive); GI50 (RXF 393): > 100 µM (inactive); GI50 (SF-539): > 100 µM (inactive); GI50 (HCT-116): > 100 µM (inactive); GI50 (BT-549): > 100 µM (inactive)

What does the source list for `CCCCCCCC1(N=[N+]=[N-])C(=O)c2ccccc2N(C)C1=O` (stereo not given)?
GI50 (OVCAR-5): > 100 µM (inactive); GI50 (OVCAR-8): 86.5 µM (inactive); GI50 (HOP-92): 22.5 µM (inactive); GI50 (786-0): > 100 µM (inactive); GI50 (SNB-19): > 100 µM (inactive); GI50 (NCI-H460): > 100 µM (inactive); GI50 (RPMI-8226): 56.1 µM (inactive); GI50 (MDA-MB-231): > 100 µM (inactive); GI50 (SK-MEL-5): 69.8 µM (inactive); GI50 (MDA-MB-435): 89.9 µM (inactive); GI50 (Malme-3M): > 100 µM (inactive); GI50 (A498): > 100 µM (inactive); GI50 (LOX IMVI): 97.1 µM (inactive); GI50 (NCI-H522): 64.9 µM (inactive); GI50 (CCRF-CEM): 7.55 µM (inactive); GI50 (SW-620): > 100 µM (inactive); GI50 (COLO 205): > 100 µM (inactive); GI50 (HOP-62): > 100 µM (inactive); GI50 (UACC-257): 57.8 µM (inactive); GI50 (HCC 2998): > 100 µM (inactive); GI50 (EKVX): > 100 µM (inactive); GI50 (HT-29): 40.1 µM (inactive); GI50 (SF-268): 93.8 µM (inactive); GI50 (HCT-15): > 100 µM; GI50 (UACC-62): 72.9 µM (inactive); GI50 (OVCAR-4): 87.3 µM (inactive); GI50 (MCF7): > 100 µM (inactive); GI50 (M14): > 100 µM (inactive); GI50 (NCI-H23): 48 µM (inactive); GI50 (SK-OV-3): > 100 µM (inactive); GI50 (ACHN): 75 µM (inactive); GI50 (IGROV-1): > 100 µM (inactive); GI50 (T47D): 68.9 µM (inactive); GI50 (NCI-H226): > 100 µM (inactive); GI50 (SNB-75): > 100 µM (inactive); GI50 (SK-MEL-28): > 100 µM (inactive); GI50 (NCI/ADR-RES): 35.6 µM (inactive); GI50 (TK-10): > 100 µM (inactive); GI50 (KM12): > 100 µM (inactive); GI50 (SF-295): > 100 µM (inactive); GI50 (A549): 68.5 µM (inactive); GI50 (DU-145): > 100 µM (inactive); GI50 (Hs-578T): > 100 µM (inactive); GI50 (CAKI-1): > 100 µM (inactive); GI50 (SR): > 100 µM (inactive); GI50 (HL-60): 54.1 µM (inactive); GI50 (SN12C): > 100 µM (inactive); GI50 (MOLT-4): > 100 µM (inactive); GI50 (PC-3): > 100 µM (inactive); GI50 (OVCAR-3): 49 µM (inactive); GI50 (U-251): > 100 µM (inactive); GI50 (RXF 393): 69.8 µM (inactive); GI50 (SF-539): > 100 µM (inactive); GI50 (HCT-116): 61 µM (inactive); GI50 (BT-549): 88.5 µM (inactive)
